Results as given in patent US20240327459A1, “PEPTIDE FRAGMENTS FOR TREATMENT OF DIABETES” (Follicum AB, priority 2018, published 2024).
“Also recorded” adds a separate entry of the source. Where no end group is shown, it is not given here.

Key:
INS-1E cells = test: Insulin secretion by novel peptide analogues (Example 21, FIG. 16); assay type: cell-based, rat; conditions: 100 nM peptide, high glucose buffer, vs un-supplemented high glucose buffer
Experimental: Materials and methods: Rat INS-1 β-cells (passages 60-70) were cultured at 37° C. and 5% CO2 in cRPMI media (RPMI 1640 supplemented with 10% fetal bovine serum, 50 IU/mL penicillin, 50 mg/L streptomycin, 10 mM HEPES, 2 mM L-glutamine, 1 mM sodium pyruvate, and 50 μM beta-mercaptoethanol) unless otherwise stated. INS-1 cells were seeded in 96-well plates (2×10^3 cells/well) in cRPMI medium and following overnight incubation, the cells were washed in PBS before pre-incubation for 120 min at 37° C. in Krebs-Ringer bicarbonate buffer, pH 7.4, supplemented with 10 mM HEPES, 0.1% bovine serum albumin and 2.8 mM glucose. Following pre-incubation, the buffer was exchanged with fresh Krebs-Ringer buffer as described above and supplemented with specific glucose concentrations and peptides for the individual experiments as described below. Immediately after 60 minutes incubation at 37° C., an aliquot of the buffer was removed and frozen for subsequent insulin ELIZA assay.
In order to correct for the variance between experiments, all values were normalized to, and expressed as percentage of the average value of the high glucose control in the individual experiments. The analogues were subsequently ranked according to performance (FIG. 16).

mouse pancreatic islets = test: Insulin secretion from isolated mouse pancreatic islets (Examples 5 and 7); assay type: cell-based; conditions: 60 min
Experimental: Mouse pancreatic islets were isolated from 8-week old C57BL/6J male mice (Taconic). Mice were sacrificed by an overdose of isoflurane and cervical dislocation. 3 ml of 0.9 U/ml collagenase P was injected into the pancreatic duct to inflate the pancreas. The Pancreas was then removed and collagen digested for 19 min at 37° C. The samples Were vigorously shaken to disrupt the tissue. The digest was transferred into ice cold Hank's Balanced Salt Solution (HBSS) with Ca^2+ and Mg^2+. The suspension was allowed to sit for 10 min to allow the islet to sink, and the islets were washed in fresh HBSS four times. The islets were then hand-picked and sorted according to size. Islets (n=3 per well in a 96 well plate) were pre-incubated in KRB buffer during 10 min 37° C., pH 7.4, supplemented with 10 mM HEPES, 0.1% bovine serum albumin. After pre-incubation, the buffer was changed and islets were incubated at different test conditions in new KRB buffer with 0.1% bovine serum albumin (non-treated ctrl, FOL-005 peptide, or GLP-1) for 60 min at 37° C. Immediately after incubation, an aliquot of the buffer was removed and frozen for subsequent assay of insulin.
Mouse pancreatic islets were isolated from 8-week old C57BL/6J male mice as described under example 5. The islets were then hand-picked and sorted according to size. Islets (n=5 per well in a 96 well plate) were pre-incubated in 200 μl KRB buffer during 10 min 37° C., pH 7.4, supplemented with 10 mM HEPES, 0.1% bovine serum albumin. Following pre-incubation, the buffer was changed and islets were incubated in different test conditions in new KRB buffer with 0.1% bovine serum albumin (non-treated ctrl, FOL-014 peptide, and GLP-1) for 60 min at 37° C. Immediately after incubation, an aliquot of the buffer was removed and frozen for subsequent assay of insulin.

isolated mouse islets = test: Insulin and glucagon secretion from isolated mouse islets (Example 12); assay type: cell-based; conditions: 100 nM
Experimental: Twelve-week-old male C57/bl6 mice were euthanized with isoflurane and cervical dislocation. After clamping the hepatic ducts, 3 ml of 0.9 U/ml collagenase P was injected into the bile duct to inflate the pancreas. The pancreas was then removed and digested for 19 min at 37° C. The samples were vigorously shaken to disrupt the tissue. The digest was quickly transferred into ice cold Hank's Balanced Salts Solution with Ca^2+ and Mg^2+. The suspension was allowed to sit for 8 min to allow the islet to sink, and the islets were washed in the same manner four times. The islets were then handpicked and sorted according to size.
Freshly isolated islets were seeded in groups of 5 in a 96-well plate and preincubated for 1 h at 37° C. in a Krebs-Ringer bicarbonate buffer (pH 7.4). The islets were incubated for 1 h at 37° C. in Krebs-Ringer buffered solution supplemented with 0.6 or 6 μM FOL-014 or 100 nM GLP-1 or left unsupplemented for control. Immediately after incubation, the medium was removed for assays of insulin and glucagon using Mercodia's ELISA kits. The effect of FOL-014 on insulin (FIGS. 8A and B) and glucagon (FIGS. 8C and D) secretion from isolated mouse islets was measured in the presence of low glucose (2.8 mM; FIGS. 8A and C) or high glucose (16.7 mM; FIGS. 8B and D) concentrations.

INS-1 cells [1] = test: Proliferation of INS-1 cells ([methyl-3H] thymidine incorporation); assay type: cell-based, rat
Experimental: To investigate if FOL-005 and FOL-014 could induce proliferation of β-cells we used INS-1 cells. Rat INS-1 cells were seeded in 96-well plates in RPMI medium with supplement and after 2 hours the medium was changed to RPMI without supplement. During the proliferation experiment the cells were incubated at different test conditions (FOL-005, FOL-014, coated or in solution, 48 h incubation) and during the last 20 hours of culture period the cells were pulsed with 1 μ Ci/well of [methyl-3H] thymidine. The cells were then harvested onto glass fiber filters using a FilterMate harvester. The filters were air dried, and the bound radioactivity was measured using a liquid scintillation counter. To study whether FOL-005 influenced β-cell proliferation, INS-1 cells were treated with increasing amounts of soluble FOL-005 (0.06-6 μM) during 48 hours and proliferation was measured with radiolabeled thymidine incorporation into newly synthesized DNA.

INS-1 cells [2] = test: Glucotoxicity-induced apoptosis of INS-1 cells (Annexin V staining, caspase-3 activity); assay type: cell-based, rat; conditions: 20 mM glucose, 48 h, vs 20 mM glucose alone
Experimental: Since glucotoxicity in pancreatic β-cells is a well-established process in type 2 diabetes we next investigated the protective effects of FOL-005 on β-cells during glucotoxic conditions. First we confirmed that 20 mM glucose induced cell apoptosis in INS cells after 48 h of exposure. High glucose (20 mM) containing RPMI medium induced more Annexin V positive cells and more caspase-3 activity in INS cells compared to cells incubated with medium containing 5 mM glucose (FIG. 2A-B). […] The rate of apoptosis in INS-1 cells was measured with either Caspase-3 Assay Kit or stained with Annexin V Apoptosis Detection Kit with 7-AAD. Caspase-3 activity was measured with fluorescence at an excitation wavelength of 380 nm and an emission wavelength of 440 nm. Caspase-3 activity was then normalized to protein concentration in each well. Measurements of
Annexin V stained cells were performed using a CyAn ADP flow cytometer and analyzed with Summit V4.3 software.

INS-1 β-cells = test: Insulin secretion from INS-1 cells (Examples 4 and 6); assay type: cell-based, rat; conditions: 6 μM peptide
Experimental: To investigate the stimulatory effect of FOL-005 on insulin secretion, INS-1 β-cells were used in the following experiments. Cells were seeded overnight in cRPMI and then washed with PBS before pre-incubation for 60 min at 37° C. in Krebs-Ringer bicarbonate buffer (KRB), pH 7.4, supplemented with 10 mM HEPES, 0.1% bovine serum albumin. After pre-incubation, the buffer was changed and the INS-1 cells were incubated at different test conditions (0 mM, 5 mM or 20 mM glucose) and stimulated with peptide FOL-005 or FOL-015 (SEQ ID NO: 158) or left untreated during 60 min at 37° C. Immediately after incubation, an aliquot of the buffer was removed and frozen for subsequent assay of insulin with an insulin radioimmunoassay kit.
INS-1 β-cells were used to investigate the stimulatory effect of FOL-014 on insulin secretion. Cells were seeded overnight and then washed with PBS before pre-incubation for 60 min at 37° C. in Krebs-Ringer bicarbonate buffer (KRB), pH 7.4, supplemented with 10 mM HEPES, 0.1% bovine serum albumin. After pre-incubation, the buffer was changed and the INS-1 cells were incubated in new KRB buffer supplemented with 10 mM HEPES, 0.1% bovine serum albumin and stimulated with peptide FOL-014 or left untreated during 60 min at 37° C. Immediately after incubation, an aliquot of the buffer was removed and frozen for subsequent assay of insulin.

DSIELSYGIK (MISC_FEATURE - peptide) [FOL-059]
insulin secretion (INS-1E cells): increased the insulin secretion as compared with cells treated with an un-supplemented high glucose buffer

EIDSIELSYGIK (MISC_FEATURE - peptide) [FOL-057]
insulin secretion (INS-1E cells): increased the insulin secretion as compared with cells treated with an un-supplemented high glucose buffer

GLP-1: native glucagon-like peptide-1, metabolic hormone that stimulates insulin secretion; comparator (HAEGTFTSDVSSYLEGQAAKEFIAWLVKGR; ends and bridges not checked; UniProt P01275 98-127, looked up) [reference compound]
insulin secretion (mouse pancreatic islets; Example 5, 100 nM, vs unstimulated control islets): secreted more insulin compared to unstimulated control islets
insulin secretion (mouse pancreatic islets; Example 7, 100 nM): did not affect insulin secretion; also recorded: had no effect on insulin secretion
glucagon secretion (isolated mouse islets; high glucose (16.7 mM)): efficiently reduced glucagon secretion
insulin secretion (isolated mouse islets; high glucose (16.7 mM)): significantly increased insulin secretion
glucagon secretion (isolated mouse islets; low glucose (2.8 mM)): failed to inhibit glucagon secretion in low glucose conditions
insulin secretion (isolated mouse islets; low glucose (2.8 mM)): enhanced insulin secretion also in low glucose samples

IDSIELSYGIK (MISC_FEATURE - peptide) [FOL-058]
insulin secretion (INS-1E cells): increased the insulin secretion as compared with cells treated with an un-supplemented high glucose buffer

VDTYDGDISVVYGLR (MISC_FEATURE - peptide, FOL-005)
proliferation of INS-1 cells (INS-1 cells [1]; peptide in solution, 0.06-6 μM, 48 hours): stimulated INS-1 cell proliferation; also recorded: induced increasing proliferation of INS-1 cells
proliferation of INS-1 cells (INS-1 cells [1]; wells coated with peptide and blocked with BSA, vs BSA coated control wells): stimulated proliferation compared to control; also recorded: induced more proliferation of β-cells compared to only BSA coated control
apoptotic cells (Annexin V positive) (INS-1 cells [2]): decreased cell apoptosis; also recorded: reduced the level of apoptotic cells compared to 20 mM glucose alone
caspase-3 activity (INS-1 cells [2]): decreased cell apoptosis; also recorded: diminished the rate of glucotoxicity-induced caspse-3 activity
insulin secretion at 20 mM glucose compared with 5 mM glucose (INS-1 β-cells): responded with more insulin secretion compared to FOL-005 stimulated cells incubated with 5 mM glucose
insulin release (INS-1 β-cells; 5 mM or 20 mM glucose): responded with insulin secretion; also recorded: stimulated insulin release
insulin release (INS-1 β-cells; non glucose containing media, 60 min, vs unstimulated control and FOL-015): secreted more insulin compared to unstimulated control cells or to cells stimulated with the FOL-015 control peptide; also recorded: increased
insulin secretion (mouse pancreatic islets; Example 5, 6 μM, vs unstimulated control islets): secreted more insulin compared to unstimulated control islets
